This note sets out measurements from PMC5430874 (Scientific Reports, 2017).

The structures appear in SMILES notation. Substitutions are numbered along the chain they refer to.

For one experiment, the target named is T1, GPR139 H113A3x37 (Homo sapiens, UniProt Q6DWJ6, H113A).
T1 construct: mGluR5 signal peptide (N); expressed in transfected cells; host or cells: HEK293
T1 sequence (Q6DWJ6 2-353 H113A limits assumed): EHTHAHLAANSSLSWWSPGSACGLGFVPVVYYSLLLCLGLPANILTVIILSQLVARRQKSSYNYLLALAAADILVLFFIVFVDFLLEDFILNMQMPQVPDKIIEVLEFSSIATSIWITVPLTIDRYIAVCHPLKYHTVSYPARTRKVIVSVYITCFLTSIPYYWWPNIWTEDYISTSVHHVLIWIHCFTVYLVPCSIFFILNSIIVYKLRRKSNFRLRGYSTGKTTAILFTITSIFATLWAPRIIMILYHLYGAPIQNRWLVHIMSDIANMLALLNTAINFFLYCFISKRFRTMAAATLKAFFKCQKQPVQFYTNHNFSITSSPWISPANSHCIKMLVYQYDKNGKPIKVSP
In words: Fluo-4 Ca2+-assay, GPR139 mutant H113A. In kind it is cell-based. From the text: (§1) To study the influence of specific amino acids in the predicted binding pocket on receptor function, the desired mutations were introduced into an N-terminally c-myc-tagged wild type human GPR139 (NM_001002911.3) in the pEGFP-N1 vector (BD Biosciences)[32], [33]. As previously described, these plasmids carry the signal peptide of mGluR5 to promote cell surface expression followed by a c-myc epitope to enable detection of total and surface expression by ELISA, followed by an engineered MluI and NotI site for easy insertion of the receptor of interest. Furthermore, the start-codon in the GPR139 sequence was deleted to ensure c-myc-tagging. […]
(§2) The Ca^2+ measurements were preformed using the Fluo-4 NW Calcium Assay Kit (Invitrogen, Molecular Probes, F36206) as previously described. […] Intracellular calcium changes were recorded as indicated on either a NOVOstar (BMG Labtech) at 37 °C with an excitation filter of 485 nm and an emission filters 520 nm or a FlexStation 3 Benchtop Multi-Mode Microplate Reader (Molecular Devices) at 37 °C with an excitation wavelength of 485 nm and emission of 525 nm.
(§3) All pharmacological data have been analyzed by using Prism 6.0 (GraphPad Software Inc., San Diego). […] Changes in potency (pEC50) and span of myc-GPR139(WT) in comparison to untagged GPR139(WT) was statistically analyzed with a paired t-test and significance was accepted at p < 0.05. […]

The next experiment deals with T2, GPR139 H251A6x58 (Homo sapiens, UniProt Q6DWJ6, H251A).
T2 construct: mGluR5 signal peptide (N); expressed in transfected cells; host or cells: HEK293
T2 sequence (Q6DWJ6 2-353 H251A limits assumed): T1 sequence (Q6DWJ6 2-353 H113A limits assumed) with A112H, H250A
Description: Fluo-4 Ca2+-assay, GPR139 mutant H251A. In kind it is cell-based.
Description: as §1, §2, §3

A word on the EC50: it is the concentration giving half of the maximal effect. Low readings indicate an effect from little substance, high ones a need for much substance. Usually Emax stands for the greatest response seen or fitted, relative to the assay's reference.

`COc1cc(OC)cc(C(=O)NNC(=O)Nc2cccc3ccccc23)c1` [Compound 1a]: the concentration for a half-maximal effect (EC50) on GPR139 H113A3x37 (H113A mutant) is 851 nM; at GPR139 H251A6x58 (H251A mutant), 813 nM. Further, the Emax on GPR139 H113A3x37 (H113A, normalized to buffer (0%) and 8 µM 1a (100%)) turned out to be 97 ± 9%; on GPR139 H251A6x58 (H251A, normalized to buffer (0%) and 8 µM 1a (100%)) it was 84 ± 11%.
